Measured values reported in publication PMC6792352, “Limited Chemical Structural Diversity Found to Modulate Thyroid Hormone Receptor in the Tox21 Chemical Library” (Environmental Health Perspectives, 2019).

Experiments:
[1] = system: thyroid hormone receptor (endogenous TRα and TRβ); test: cells; set-up: species or system GH3-TRE-Luc (rat pituitary); GH3-TRE-Luc luciferase reporter, antagonist mode against 1 nM T3, loss of signal, qHTS; details: 24 h, antagonist mode, 1 nM T3, read-out: AC50 (uM) modified / 1000
[2] = system: thyroid hormone receptor (endogenous TRα and TRβ); test: cells; set-up: species or system GH3-TRE-Luc (rat pituitary); GH3-TRE-Luc luciferase reporter transactivation, agonist mode, qHTS; RXR ligands can also activate indirectly; details: 24 h, read-out: TR_LUC_GH3_Agonist_AC50 (uM)
in vitro [3] = test: in vitro; set-up: species or system GH3-TRE-Luc (rat pituitary); CellTiter-Fluor viability run in parallel with antagonist mode (1 nM T3), loss of viability; details: rat, gh3-tre-luc cells, 1 nM T3 present
[4] = biological target: T1, TRα ligand-binding domain (Homo sapiens, UniProt P10827); test: TRa-coa LanthaScreen TR-FRET coactivator (SRC-2 peptide) recruitment, agonist (TOX21_TRA_COA_Agonist_Followup_ratio, aeid 2230); assay type: biochemical
T1 construct: the receptor LBDs expressed as glutathione S-transferase (GST) fusion proteins; purchased

[5] = system: Tox21 cell viability assays (different cell types); test: Global cytotoxicity: eighteen Tox21 cell viability assays; assay type: cell-based
[6] = biological target: T2, human TRβ ligand-binding domain (Homo sapiens, UniProt P10828); test: TRb-bla agonist mammalian one-hybrid beta-lactamase assay (TOX21_TRB_BLA_Agonist_Followup_ratio, aeid 2236); assay type: cell-based; set-up: host or cells: GeneBLAzer UAS-bla HEK 293T
T2 sequence (P10828 217-461 limits assumed): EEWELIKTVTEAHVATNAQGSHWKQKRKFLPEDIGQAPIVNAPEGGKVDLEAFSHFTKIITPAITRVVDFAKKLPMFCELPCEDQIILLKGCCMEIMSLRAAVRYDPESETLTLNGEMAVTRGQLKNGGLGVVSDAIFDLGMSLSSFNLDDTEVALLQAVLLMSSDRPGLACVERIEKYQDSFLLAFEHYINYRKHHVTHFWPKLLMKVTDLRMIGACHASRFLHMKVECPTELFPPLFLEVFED

[7] = system: thyroid hormone receptor (endogenous TRα and TRβ); test: GH3-TRE-Ag-Followup confirmation (TOX21_TR_LUC_GH3_Agonist_Followup, aeid 2226); assay type: cell-based, rat
[8] = system: thyroid hormone receptor (TR); test: Classification of TR actives across characterization assays (TR-Ag / RXR-Ag; TR model binary); set-up: key to Categorization Code: FP, false positive
Method in brief: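 GH3-TRE qHTS agonist, antagonist and viability modes over 8,305 compounds; 84 candidates rescreened in GH3-TRE-Ag, TRβ- and RXRα-UAS-bla HEK 293T one-hybrid assays, HEK293T viability, and TRα/TRβ coactivator recruitment. Actives classified binary after removing pharmaceuticals.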

human RXRα = biological target: T3, human RXRα (Homo sapiens, UniProt P19793); test: RXRa-bla-Ag mammalian one-hybrid beta-lactamase assay (TOX21_TR_RXR_BLA_Agonist_Followup_ratio, aeid 2253); assay type: cell-based
T3 construct: host or cells: GeneBLAzer UAS-bla HEK 293T
T3 sequence (P19793 227-458 limits assumed): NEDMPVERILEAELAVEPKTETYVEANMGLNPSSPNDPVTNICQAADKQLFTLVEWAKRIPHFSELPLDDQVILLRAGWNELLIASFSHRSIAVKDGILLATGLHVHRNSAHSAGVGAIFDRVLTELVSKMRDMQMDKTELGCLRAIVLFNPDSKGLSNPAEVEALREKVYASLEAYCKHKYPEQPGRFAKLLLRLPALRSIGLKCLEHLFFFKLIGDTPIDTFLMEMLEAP

GH3-TRE-Luc cell line = test: GH3-TRE-Via cell viability, CellTiter-Fluor (TOX21_TR_LUC_GH3_Antagonist_viability, aeid 805)
[9] = system: thyroid hormone receptor (endogenous TRα and TRβ); test: GH3-TRE-Ag primary qHTS, luciferase reporter, agonist mode (TOX21_TR_LUC_GH3_Agonist, aeid 803); assay type: cell-based, rat
[10] = biological target: T2, human TRβ ligand-binding domain; test: TRb-coa LanthaScreen TR-FRET coactivator (SRC-2 peptide) recruitment, agonist (TOX21_TRB_COA_Agonist_Followup_ratio, aeid 2244); assay type: biochemical; set-up: host or cells: GeneBLAzer UAS-bla HEK 293T
in vitro [11] = details: rat, gh3-tre-luc cells, AC50 (uM) modified / 1000
[12] = system: thyroid hormone receptor (endogenous TRα and TRβ); test: GH3-TRE-Antag-Followup confirmation (TOX21_TR_LUC_GH3_Antagonist_Followup, aeid 2227); assay type: cell-based, rat; details: Table S3, aeid 2227
[13] = biological target: T2, human TRβ ligand-binding domain; test: TRb-bla antagonist mammalian one-hybrid beta-lactamase assay (TOX21_TRB_BLA_Antagonist_Followup, aeid 2238-2240); assay type: cell-based; details: for Emax: read-out: resp_max (maximum response value)
estrogen receptor = system: estrogen receptor; set-up: method as in Judson et al. 2015; details: model values ≥0.1 define actives; ref Judson et al. 2015; cited from earlier work
[14] = candidate chemicals in Tables 2 and 3 define actives

T1 sequence (P10827 163-410 isoform P10827-2 limits assumed, other chains not shown): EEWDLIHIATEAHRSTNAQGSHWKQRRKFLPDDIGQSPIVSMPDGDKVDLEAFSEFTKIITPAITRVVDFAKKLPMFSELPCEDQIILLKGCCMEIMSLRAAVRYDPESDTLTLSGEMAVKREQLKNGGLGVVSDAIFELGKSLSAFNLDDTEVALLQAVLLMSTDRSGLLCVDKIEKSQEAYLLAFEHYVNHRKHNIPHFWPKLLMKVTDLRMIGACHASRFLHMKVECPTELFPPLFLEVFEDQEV

**Q.** Which results are given for `ClCc1ccccc1` [Benzyl chloride]?
**A.** AC50 ([1]; Tox21_110001=Tox21_200266): > 90 µM; AC50 [2]: > 90 µM; CC50 at 24 h (in vitro [3]; AC50 (uM) modified / 1000, Tox21_110001=Tox21_200266, viability): > 90 µM

**Q.** Which results are given for `CCOP(=O)(OCC)Oc1nc(Cl)c(Cl)cc1Cl` [Chlorpyrifos oxon]?
**A.** AC50 [2]: > 90 µM; CC50 at 24 h (in vitro [3]; AC50 (uM) modified / 1000, Tox21_110001=Tox21_301063, viability): 60.1 µM

**Q.** With `[CH3][Sn]([CH3])([Cl])[Cl]` [Dimethyltin dichloride] as the compound, how does the CC50 at 24 h (in vitro [3]; AC50 (uM) modified / 1000, Tox21_110001=Tox21_201249, viability) read?
**A.** 79.3 µM

**Q.** What does the source list for `CNC(=O)ON=C(CSC)C(C)(C)C` [Thiofanox]?
**A.** AC50 ([4]; agonist, read-out: TRa-coa AC50): > 92 µM; TRa-coa hitc ([4]; hit call from tcpl, agonist): 0; Emax ([4]; read-out: EMax (% of Control) tra-coa-agonist-followup-1): -0.2%; GLOBAL CYTOTOXICITY cytotox.number_Active ([5]; # active of 18 total Tox21 viability assays): 0; GLOBAL CYTOTOXICITY cytotox.median ([5]; median over Tox21 viability assays): >92; AC50 ([6]; agonist, read-out: TRb-bla AC50): > 92 µM; TRb-bla hitc ([6]; hit call from tcpl, agonist): 0; Emax ([6]; read-out: EMax (% of Control) trb-bla-agonist-followup-1): 31.7%; EMax (% of Control) gh3-tre-agonist-followup-1_agonist [7]: 9.5 % of Control; GH3-TRE-Ag-Followup hitc ([7]; hit call from tcpl): 0; AC50 ([7]; read-out: GH3-TRE-Ag-Followup AC50): > 92 µM; Categorization Code ([8]; TR agonist characterization): FP; tr-followup-rxr-bla-agonist-1 hitc (human RXRα; hit call from tcpl): 0; Emax (human RXRα; read-out: EMax (% of Control) tr-followup-rxr-bla-agonist-1): 3%; AC50 (human RXRα; read-out: tr-followup-rxr-bla-agonist-1 AC50): > 92 µM; AC50 [2]: 21 µM; AC50 (GH3-TRE-Luc cell line; Rattus norvegicus, read-out: TR_LUC_GH3_Antagonist_viability AC50 (uM)): > 92 µM; TR_LUC_GH3_Antagonist_viability hitc (GH3-TRE-Luc cell line; hit call from tcpl): 0; EMax (% of Control) gh3-tre-agonist [9]: 22.7 % of Control; GH3-TRE-Ag AC50 hitc ([9]; hit call from tcpl): 1; AC50 ([10]; agonist, read-out: TRb-coa AC50): > 92 µM; TRb-coa hitc ([10]; hit call from tcpl, agonist): 0; Emax ([10]; read-out: EMax (% of Control) trb-coa-agonist-followup-1): -0.165%

**Q.** For `O=C(O)c1cccnc1Nc1cccc(C(F)(F)F)c1` [Niflumic acid], which CC50 at 24 h (in vitro [11]) is on record?
**A.** > 50 µM

**Q.** What about the “flag (text output for the level 6 method)” value [12] of the same compound?
**A.** Borderline inactive

**Q.** And the hitc [12]?
**A.** 0

**Q.** And the “modl_tp (top asymptote for the winning model)” value [12]?
**A.** 11.5978 percent_activity

**Q.** And the “resp_max (maximum response value)” value [12]?
**A.** 41.1677 percent_activity

**Q.** And the hitc ([13]; Table S3, aeid 2238, ch1)?
**A.** 0

**Q.** And the Emax ([13]; Table S3, aeid 2238, ch1)?
**A.** 36.4%

**Q.** What about the hitc ([13]; Table S3, aeid 2239, ch2) of the same compound?
**A.** 0

**Q.** What about the Emax ([13]; Table S3, aeid 2239, ch2) of the same compound?
**A.** 24.1%

**Q.** What about the hitc ([13]; Table S3, aeid 2240, ratio) of the same compound?
**A.** 0

**Q.** And the Emax ([13]; Table S3, aeid 2240, ratio)?
**A.** 46.2%

**Q.** Which ER_Model_AUC_Agonist (estrogen receptor) does the source give for (-)-alpha-Pinene here?
**A.** 0

**Q.** And the ER_Model_AUC_Antagonist (estrogen receptor)?
**A.** 0

**Q.** What about the TR_Model_Binary_Agonist [8, 14] of the same compound?
**A.** 0

**Q.** And the TR_Model_Binary_Antagonist [8, 14]?
**A.** 0

**Q.** With `CCS(=O)(=O)CCSP(=O)(OC)OC` [Demeton-S-methylsulphon] as the compound, how does the AC50 ([1]; Tox21_110001=Tox21_301575) read?
**A.** > 90 µM

**Q.** And the AC50 [2]?
**A.** > 90 µM

**Q.** And the CC50 at 24 h (in vitro [3]; AC50 (uM) modified / 1000, Tox21_110001=Tox21_301575, viability)?
**A.** > 90 µM

**Q.** What does the source list for `CCOP(=S)(Oc1ccc([N+](=O)[O-])cc1)c1ccccc1` (centres unmarked) [EPN]?
**A.** AC50 ([1]; Tox21_110001=Tox21_300424): > 90 µM; AC50 [2]: > 90 µM; CC50 at 24 h (in vitro [3]; AC50 (uM) modified / 1000, Tox21_110001=Tox21_300424, viability): > 90 µM

**Q.** Which AC50 ([1]; Tox21_110001=Tox21_301741) does the source give for `CCOP(=S)(OCC)SCSc1cc(Cl)ccc1Cl` [Phenkapton] here?
**A.** > 90 µM

**Q.** What about the AC50 [2] of the same compound?
**A.** > 90 µM

**Q.** And the CC50 at 24 h (in vitro [3]; AC50 (uM) modified / 1000, Tox21_110001=Tox21_301741, viability)?
**A.** > 90 µM
